# Patent US8779005B2, “Salts of desvenlafaxine and a method of their preparation” (Zentiva k.s., priority 2009, dated 2014)
# Legend:
# [1] = Measurement of equilibrium solubility; settings: 24-hour stirring; for solubility thermodynamic at 24 h: 25 °C, thermodynamic from solid; for Equilibrium solubility at pH 2: pH 2 (0.01 M HCl), 25° C.; for Equilibrium solubility at pH 6.8: phosphate buffer of pH 6.8, 25° C.
# [2] = in vivo; cited from earlier work
# [3] = Measurement of the dissolution rate (USP Wood Apparatus, rotary disk method); assay type: physicochemical; settings: for Dissolution rate constants at pH 2: pH 2 (0.01 M HCl), 37° C.; for Dissolution rate constants at pH 2 / Dissolution rate constants at pH 6.8: rotary disk; for Dissolution rate constants at pH 6.8: phosphate buffer of pH 6.8, 37° C.
# Protocol: Measurement of the Dissolution Rate The dissolution rate of desvenlafaxine salts (Table 2) in water at various pH values was measured in a Varian-Vankel System, USP Wood Apparatus (rotary disk method). A disk with the diameter of 5 mm was prepared by compression from about 0.2 g of the substance.
# [4] = 0.01 M HCl, pH 2, simulated gastric fluid, Equilibrium solubility at pH 2, pH 2 (0.01 M HCl)
# [5] = phosphate buffer, pH 6.8, aqueous buffer, Equilibrium solubility at pH 6.8, phosphate buffer of pH 6.8, 25° C.
# [6] = dihydrate, Hemioxalate Trihydrate
Compound,"solubility thermodynamic at 24 h [1, 4]","solubility thermodynamic at 24 h [1, 5]","Dissolution speed in water relative to hydrogen fumarate ([3]; in water, compared with hydrogen fumarate)",Dissolution rate constants at pH 2 [3],Dissolution rate constants at pH 6.8 [3],Equilibrium solubility at pH 2 [1],Equilibrium solubility at pH 6.8 [1],"Equilibrium solubility at pH 2 [1, 6]","Equilibrium solubility at pH 6.8 [1, 6]",Dissolution rate constants at pH 2 ([3]; Hemioxalate Trihydrate),Dissolution rate constants at pH 6.8 ([3]; Hemioxalate Trihydrate),Biological availability (absorption of desvenlafaxine in rat intestine) relative to hydrogen fumarate [2]
"CN(C)CC(c1ccc(O)cc1)C1(O)CCCCC1 (centres unmarked) [Base, Desvenlafaxine]",,,,0.6 mg/cm^2/min,0.2 mg/cm^2/min,2 mg/ml,4 mg/ml,,,,,
"CN(C)CC(c1ccc(O)cc1)C1(O)CCCCC1.O=C(O)/C=C/C(=O)O (centres unmarked) [Hydrogen fumarate hydrate, Desvenlafaxine hydrogen fumarate]",8 mg/mL,8 mg/mL,,0.8 mg/cm^2/min,0.8 mg/cm^2/min,,,,,,,
"CN(C)CC(c1ccc(O)cc1)C1(O)CCCCC1 (centres unmarked) [Hemioxalate, anhydrous, Anhydrous Desvenlafaxine Hemioxalate]",,,,6.6 mg/cm^2/min,5.9 mg/cm^2/min,92 mg/ml,80 mg/ml,,,,,
"CN(C)CC(c1ccc(O)cc1)C1(O)CCCCC1 (centres unmarked) [Hemioxalate, hydrate, Desvenlafaxine Hemioxalate Trihydrate]",,,,,,,,86 mg/ml,71 mg/ml,>10 mg/cm^2/min,>10 mg/cm^2/min,

# Now from value to compound, other results behind:
"solubility thermodynamic at 24 h [1, 4]","solubility thermodynamic at 24 h [1, 5]","Dissolution speed in water relative to hydrogen fumarate ([3]; in water, compared with hydrogen fumarate)",Dissolution rate constants at pH 2 [3],Dissolution rate constants at pH 6.8 [3],Equilibrium solubility at pH 2 [1],Equilibrium solubility at pH 6.8 [1],"Equilibrium solubility at pH 2 [1, 6]","Equilibrium solubility at pH 6.8 [1, 6]",Dissolution rate constants at pH 2 ([3]; Hemioxalate Trihydrate),Dissolution rate constants at pH 6.8 ([3]; Hemioxalate Trihydrate),Compound,Biological availability (absorption of desvenlafaxine in rat intestine) relative to hydrogen fumarate [2]
53 mg/mL,58 mg/mL,approximately twice as fast,3.1 mg/cm^2/min,3.2 mg/cm^2/min,,,,,,,"CN(C)CC(c1ccc(O)cc1)C1(O)CCCCC1.O=C(O)CCC(=O)O (centres unmarked) [Hydrogen succinate hydrate, Desvenlafaxine hydrogen succinate]",roughly three times higher
89 mg/mL,63 mg/mL,,7.1 mg/cm^2/min,6.0 mg/cm^2/min,,,,,,,"CN(C)CC(c1ccc(O)cc1)C1(O)CCCCC1.O=C(O)C(=O)O (centres unmarked) [Hydrogen oxalate hydrate, Desvenlafaxine Hydrogen Oxalate Hydrate]",
